# Data: patent US12084445B2, “Broad-spectrum carbapenems” (VenatoRx Pharmaceuticals, Inc., priority 2018, dated 2024)
# Legend:
# Assay type in all cases: cell-based
# [1] = test system: S. aureus ATCC 33591 (methicillin-resistant); test: broth microdilution MIC assay, S. aureus ATCC 33591; settings: Staphylococcus aureus, ATCC33591; Table 4; S. aureus 33591; read-out: S. aureus 33591 MIC
# Procedure, shortened: (§1)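 Colonies from Mueller Hinton II agar → MH broth (divalent cations supplemented), 37 °C, 200 rpm, 3-5 h → OD600-adjusted to 5×10^5 CFU/mL final → 2-fold serial compound dilutions → 16-20 h, 37 °C → visual MIC.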
# [2] = test system: E. coli ATCC 25922 (wild-type/QC strain); test: broth microdilution MIC assay, E. coli ATCC 25922; settings: Escherichia coli, ATCC25922; Table 4; E. coli 25922; read-out: E. coli 25922 MIC
# Procedure, shortened: as §1
# [3] = test system: P. aeruginosa ATCC 27853 (wild-type/QC strain); test: broth microdilution MIC assay, P. aeruginosa ATCC 27853; settings: Pseudomonas aeruginosa, ATCC27853; Table 5; P. aeruginosa 27853; read-out: P. aeruginosa 27853 MIC
# Procedure, shortened: as §1
# [4] = test system: clinical isolate P. aeruginosa PA 8; test: broth microdilution MIC assay, P. aeruginosa PA 8; settings: Pseudomonas aeruginosa; Table 5; P. aeruginosa PA8
# Procedure, shortened: as §1
# S. aureus USA 300 = test: broth microdilution MIC assay, S. aureus USA 300; settings: Staphylococcus aureus; Table 4; S. aureus USA300; read-out: S. aureus USA300 MIC
# Procedure, shortened: as §1
# S. aureus USA400 = test: broth microdilution MIC assay, S. aureus USA 400; settings: Staphylococcus aureus, Table 4
# Method: (§2) To determine the ability of test compounds to potentiate the inhibition of the growth of bacterial strains, classic cell-based broth microdilution MIC assays were employed. MIC assays are performed according to CLSI methods except where otherwise noted (CLSI, 2011 and CLSI, 2009). The reference strains S. aureus ATCC 29213 (methicillin sensitive), S. aureus ATCC 33591 (methicillin-resistant), E. coli ATCC 25922 (wild-type/QC strain), P. aeruginosa ATCC 27853 (wild-type/QC strain), and the clinical isolate P. aeruginosa PA 8 were used to determine the ability of the exemplary carbapenem compounds to inhibit bacterial growth. An expanded panel of methicillin resistance S. aureus (MRSA) and Pseudomonas was also used to determine the ability of exemplary carbapenem compounds to inhibit bacterial growth across a broader representation of those species. To determine activity in MRSA and in addition to S. aureus ATCC 33591, S. aureus USA 300, USA 400 and USA 600, some of the most common clones found to cause human infection, were also used. To further gauge the impact on the carbapenem compounds due to various resistance mechanisms in Pseudomonas, the following strains were included: P. aeruginosa 35151 (hyper-permeable strain), P. aeruginosa AmexAB-OprM (an efflux pump knockout), and P. aeruginosa PA 3 (a clinical isolate of reduced carbapenem susceptibility). Briefly, cryo-preserved bacterial cultures of clinical strains are streaked for isolation on appropriate agar medium, in this case Mueller Hinton II agar. Following incubation to allow formation of colonies, these plates are sealed with parafilm and stored refrigerated for up to two weeks. For preparation of assay inocula and to ensure low variability, at least 5 colonies are picked from the agar plates with an inoculating loop and aseptically transferred to a culture tube containing 3 mL of Mueller-Hinton Broth (supplemented with divalent cations to required levels based on Manufacturers' specification). The broth culture is grown for 3-5 hours at 37° C. with shaking at 200 rpm. Meanwhile, 2-fold serial dilutions of test compounds are conducted in a 96 well plate with a final volume of 75 μL per well at 2-fold the final desired concentration. After the dilution plates are set up the growing cultures are then diluted in a cuvette containing MH II broth and the optical density is measured at 600 nm. Inocula are diluted such that 75 μL of this culture in Mueller-Hinton Broth results in a starting bacterial concentration of 5×10^5 CFU/mL when added to the dilution plates. The plates are incubated 16-20 hours at 37° C. The MIC is read visually as the lowest concentration well with no bacterial growth.
# (§3) Representative results are shown in Tables 3, 4, and 5 where A represents an MIC>32 μg/mL, B represents an MIC between 8 and 32 μg/mL inclusive, C represents an MIC between 1 and 4 μg/mL inclusive, and D represents an MIC of <1 μg/mL. NT=Not Tested.
# [5] = test system: P. aeruginosa 35151 (hyper-permeable strain); test: broth microdilution MIC assay, P. aeruginosa 35151; settings: Pseudomonas aeruginosa, read-out: P. aeruginosa 35151 MIC
# Procedure, shortened: as §1
# [6] = test system: P. aeruginosa ΔmexAB-OprM (an efflux pump knockout); test: broth microdilution MIC assay, P. aeruginosa ΔmexAB-OprM; settings: Pseudomonas aeruginosa, 20 h, read-out: P. aeruginosa ΔmexAB-OprM MIC
# Procedure, shortened: as §1
# [7] = test system: P. aeruginosa PA 3 (a clinical isolate of reduced carbapenem susceptibility); test: broth microdilution MIC assay, P. aeruginosa PA 3; settings: Pseudomonas aeruginosa; Table 5; P. aeruginosa PA3
# Method: as §2, §3
# S. aureus USA600 = test: broth microdilution MIC assay, S. aureus USA 600; settings: Staphylococcus aureus; Table 4; S. aureus USA600; read-out: S. aureus USA600 MIC
# Procedure, shortened: as §1
SMILES,MIC [1],MIC [2],MIC [3],MIC [4],MIC (S. aureus USA 300),MIC (S. aureus USA400),MIC [5],MIC [6],MIC [7],MIC (S. aureus USA600)
"C[C@@H](O)[C@H]1C(=O)N2C(C(=O)O)=C(SC3CCN(CC4CCNCC4)CC3)[C@H](C)[C@H]12 [Example 44, (4R,5S,6S)-6-((R)-1-hydroxyethyl)-4-methyl-7-oxo-3-((1-(piperidin-4-ylmethyl)piperidin-4-yl)thio)-1-azabicyclo[3.2.0]hept-2-ene-2-carboxylic acid]",8 to 32 µg/mL,1 to 4 µg/mL,8 to 32 µg/mL,8 to 32 µg/mL,1 to 4 µg/mL,1 to 4 µg/mL,< 1 µg/mL,1 to 4 µg/mL,8 to 32 µg/mL,
"C[C@@H](O)[C@H]1C(=O)N2C(C(=O)O)=C(S[C@@H]3CCN(C[C@@H]4CNCCO4)C3)[C@H](C)[C@H]12 [Example 49, (4R,5S,6S)-6-((R)-1-hydroxyethyl)-4-methyl-3-(((R)-1-(((S)-morpholin-2-yl)methyl)pyrrolidin-3-yl)thio)-7-oxo-1-azabicyclo[3.2.0]hept-2-ene-2-carboxylic acid]",8 to 32 µg/mL,< 1 µg/mL,8 to 32 µg/mL,1 to 4 µg/mL,1 to 4 µg/mL,,< 1 µg/mL,1 to 4 µg/mL,8 to 32 µg/mL,1 to 4 µg/mL
"C[C@@H](O)[C@H]1C(=O)N2C(C(=O)O)=C(S[C@@H]3CCN(C[C@H]4CNCCO4)C3)[C@H](C)[C@H]12 [Example 50, (4R,5S,6S)-6-((R)-1-hydroxyethyl)-4-methyl-3-(((R)-1-(((R)-morpholin-2-yl)methyl)pyrrolidin-3-yl)thio)-7-oxo-1-azabicyclo[3.2.0]hept-2-ene-2-carboxylic acid]",1 to 4 µg/mL,< 1 µg/mL,1 to 4 µg/mL,1 to 4 µg/mL,1 to 4 µg/mL,,< 1 µg/mL,1 to 4 µg/mL,8 to 32 µg/mL,1 to 4 µg/mL
"C[C@@H](O)[C@H]1C(=O)N2C(C(=O)O)=C(S[C@@H]3CCN(C[C@H]4CCNC4)C3)[C@H](C)[C@H]12 [Example 51, (4R,5S,6S)-6-((R)-1-hydroxyethyl)-4-methyl-7-oxo-3-(((R)-1-(((S)-pyrrolidin-3-yl)methyl)pyrrolidin-3-yl)thio)-1-azabicyclo[3.2.0]hept-2-ene-2-carboxylic acid]",1 to 4 µg/mL,< 1 µg/mL,1 to 4 µg/mL,1 to 4 µg/mL,1 to 4 µg/mL,,< 1 µg/mL,1 to 4 µg/mL,8 to 32 µg/mL,1 to 4 µg/mL
"C[C@@H](O)[C@H]1C(=O)N2C(C(=O)O)=C(S[C@@H]3CCN(C[C@@H]4CCNC4)C3)[C@H](C)[C@H]12 [Example 53, (4R,5S,6S)-6-((R)-1-hydroxyethyl)-4-methyl-7-oxo-3-(((R)-1-(((R)-pyrrolidin-3-yl)methyl)pyrrolidin-3-yl)thio)-1-azabicyclo[3.2.0]hept-2-ene-2-carboxylic acid]",1 to 4 µg/mL,< 1 µg/mL,1 to 4 µg/mL,1 to 4 µg/mL,1 to 4 µg/mL,,< 1 µg/mL,1 to 4 µg/mL,8 to 32 µg/mL,1 to 4 µg/mL
